Test [1] addresses T1, Heat shock factor protein 1 (Mus musculus, UniProt P38532).
T1 sequence (P38532 whole entry): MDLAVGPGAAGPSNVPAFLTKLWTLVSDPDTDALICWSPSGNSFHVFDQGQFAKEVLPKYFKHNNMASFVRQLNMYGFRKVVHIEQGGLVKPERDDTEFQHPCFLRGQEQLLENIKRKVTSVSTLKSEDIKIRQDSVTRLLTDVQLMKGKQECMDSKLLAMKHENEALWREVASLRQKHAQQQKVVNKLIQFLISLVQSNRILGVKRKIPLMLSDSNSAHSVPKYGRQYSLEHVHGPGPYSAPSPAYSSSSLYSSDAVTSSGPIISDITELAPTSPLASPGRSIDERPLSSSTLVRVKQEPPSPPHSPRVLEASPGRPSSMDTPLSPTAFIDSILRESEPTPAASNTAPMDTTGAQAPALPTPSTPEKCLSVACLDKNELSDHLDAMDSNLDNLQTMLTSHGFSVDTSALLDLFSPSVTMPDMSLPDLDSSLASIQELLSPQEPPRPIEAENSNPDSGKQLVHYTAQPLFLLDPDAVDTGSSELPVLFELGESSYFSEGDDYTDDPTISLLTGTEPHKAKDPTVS
Nature of the test: HSF1 potentiators in luciferase reporter cells, confirmation, cell-based, NIH3T3, luminescence, dose retest (AID 435004).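 Note: stress induced by proteasome inhibitor MG132 added 30 min after compound; luciferase reporter driven by HSF1 response element in NIH3T3 cells; actives raise luminescence as potentiators of the MG132 stress response.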 The test is classed as functional.

The target in another test is T2, Protein RecA (Mycobacterium tuberculosis, UniProt P9WHJ3).
T2 sequence (P9WHJ3 whole entry): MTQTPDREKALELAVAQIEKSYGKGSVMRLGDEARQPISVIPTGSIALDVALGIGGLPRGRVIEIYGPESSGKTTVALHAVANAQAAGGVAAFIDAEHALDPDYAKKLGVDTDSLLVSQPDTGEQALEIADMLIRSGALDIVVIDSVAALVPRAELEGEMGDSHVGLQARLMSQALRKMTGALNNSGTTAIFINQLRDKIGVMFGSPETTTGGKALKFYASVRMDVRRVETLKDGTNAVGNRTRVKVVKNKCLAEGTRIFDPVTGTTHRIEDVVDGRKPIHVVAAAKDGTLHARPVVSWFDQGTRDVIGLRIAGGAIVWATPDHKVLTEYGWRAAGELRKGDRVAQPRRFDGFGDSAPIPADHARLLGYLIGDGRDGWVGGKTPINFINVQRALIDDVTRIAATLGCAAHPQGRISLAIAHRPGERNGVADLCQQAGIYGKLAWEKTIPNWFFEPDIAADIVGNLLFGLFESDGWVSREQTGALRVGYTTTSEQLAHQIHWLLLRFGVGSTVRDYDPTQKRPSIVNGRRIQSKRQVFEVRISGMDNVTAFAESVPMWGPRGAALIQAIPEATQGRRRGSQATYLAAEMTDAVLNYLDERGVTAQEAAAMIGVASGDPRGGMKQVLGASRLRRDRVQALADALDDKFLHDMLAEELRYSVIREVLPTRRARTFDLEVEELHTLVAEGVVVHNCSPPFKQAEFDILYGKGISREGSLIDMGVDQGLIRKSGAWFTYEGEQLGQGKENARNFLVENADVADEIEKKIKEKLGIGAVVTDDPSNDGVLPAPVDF
Briefly: Fluorescence Cell-Free Homogeneous Dose Retest to Identify Inhibitors of RecA-Intein Splicing Activity. [Related pubchem assays (depositor defined):AID2097, AID2223, AID489010, AID492950]. The test is classed as functional.

Test [2] can be described thus: Intein inhibitors as potential Tuberculosis drugs, a cytotoxicity screen. [Related pubchem assays (depositor defined):AID2221, AID2223, AID434968, AID435010, AID449749, AID449750, AID489010]. The test is classed as functional.
For test [3], the target named is T3, Replicative DNA helicase DnaB (Mycobacterium tuberculosis, UniProt P9WMR3).
T3 sequence (P9WMR3 whole entry): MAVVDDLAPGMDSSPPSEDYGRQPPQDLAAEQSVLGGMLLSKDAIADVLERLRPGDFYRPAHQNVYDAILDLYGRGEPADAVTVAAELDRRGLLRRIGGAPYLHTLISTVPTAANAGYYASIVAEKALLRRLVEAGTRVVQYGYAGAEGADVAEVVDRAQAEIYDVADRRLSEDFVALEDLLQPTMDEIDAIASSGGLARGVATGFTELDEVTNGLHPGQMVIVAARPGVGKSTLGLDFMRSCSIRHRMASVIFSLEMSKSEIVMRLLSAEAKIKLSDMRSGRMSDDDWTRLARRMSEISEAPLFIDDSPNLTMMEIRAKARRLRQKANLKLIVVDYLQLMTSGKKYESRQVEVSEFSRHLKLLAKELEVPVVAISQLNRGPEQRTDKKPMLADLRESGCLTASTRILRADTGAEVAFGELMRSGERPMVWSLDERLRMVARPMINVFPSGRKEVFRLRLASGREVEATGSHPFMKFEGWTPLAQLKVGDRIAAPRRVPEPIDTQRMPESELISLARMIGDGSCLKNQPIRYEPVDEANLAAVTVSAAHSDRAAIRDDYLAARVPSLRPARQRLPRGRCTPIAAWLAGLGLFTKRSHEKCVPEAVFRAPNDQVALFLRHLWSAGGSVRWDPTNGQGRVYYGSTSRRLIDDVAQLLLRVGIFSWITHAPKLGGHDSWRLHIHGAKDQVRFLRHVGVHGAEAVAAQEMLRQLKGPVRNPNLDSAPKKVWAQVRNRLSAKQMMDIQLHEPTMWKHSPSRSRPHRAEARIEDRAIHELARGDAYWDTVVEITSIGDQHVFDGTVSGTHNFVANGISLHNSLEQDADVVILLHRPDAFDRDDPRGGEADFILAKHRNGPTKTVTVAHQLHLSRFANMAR
Nature of the test: DnaB intein splicing inhibitors, dose response, biochemical, cell-free fluorescence (AID 449749). The test is classed as functional.

Test [4] has as its target T4, Histone-lysine N-methyltransferase NSD2 (Homo sapiens, UniProt O96028).
T4 sequence (O96028 whole entry): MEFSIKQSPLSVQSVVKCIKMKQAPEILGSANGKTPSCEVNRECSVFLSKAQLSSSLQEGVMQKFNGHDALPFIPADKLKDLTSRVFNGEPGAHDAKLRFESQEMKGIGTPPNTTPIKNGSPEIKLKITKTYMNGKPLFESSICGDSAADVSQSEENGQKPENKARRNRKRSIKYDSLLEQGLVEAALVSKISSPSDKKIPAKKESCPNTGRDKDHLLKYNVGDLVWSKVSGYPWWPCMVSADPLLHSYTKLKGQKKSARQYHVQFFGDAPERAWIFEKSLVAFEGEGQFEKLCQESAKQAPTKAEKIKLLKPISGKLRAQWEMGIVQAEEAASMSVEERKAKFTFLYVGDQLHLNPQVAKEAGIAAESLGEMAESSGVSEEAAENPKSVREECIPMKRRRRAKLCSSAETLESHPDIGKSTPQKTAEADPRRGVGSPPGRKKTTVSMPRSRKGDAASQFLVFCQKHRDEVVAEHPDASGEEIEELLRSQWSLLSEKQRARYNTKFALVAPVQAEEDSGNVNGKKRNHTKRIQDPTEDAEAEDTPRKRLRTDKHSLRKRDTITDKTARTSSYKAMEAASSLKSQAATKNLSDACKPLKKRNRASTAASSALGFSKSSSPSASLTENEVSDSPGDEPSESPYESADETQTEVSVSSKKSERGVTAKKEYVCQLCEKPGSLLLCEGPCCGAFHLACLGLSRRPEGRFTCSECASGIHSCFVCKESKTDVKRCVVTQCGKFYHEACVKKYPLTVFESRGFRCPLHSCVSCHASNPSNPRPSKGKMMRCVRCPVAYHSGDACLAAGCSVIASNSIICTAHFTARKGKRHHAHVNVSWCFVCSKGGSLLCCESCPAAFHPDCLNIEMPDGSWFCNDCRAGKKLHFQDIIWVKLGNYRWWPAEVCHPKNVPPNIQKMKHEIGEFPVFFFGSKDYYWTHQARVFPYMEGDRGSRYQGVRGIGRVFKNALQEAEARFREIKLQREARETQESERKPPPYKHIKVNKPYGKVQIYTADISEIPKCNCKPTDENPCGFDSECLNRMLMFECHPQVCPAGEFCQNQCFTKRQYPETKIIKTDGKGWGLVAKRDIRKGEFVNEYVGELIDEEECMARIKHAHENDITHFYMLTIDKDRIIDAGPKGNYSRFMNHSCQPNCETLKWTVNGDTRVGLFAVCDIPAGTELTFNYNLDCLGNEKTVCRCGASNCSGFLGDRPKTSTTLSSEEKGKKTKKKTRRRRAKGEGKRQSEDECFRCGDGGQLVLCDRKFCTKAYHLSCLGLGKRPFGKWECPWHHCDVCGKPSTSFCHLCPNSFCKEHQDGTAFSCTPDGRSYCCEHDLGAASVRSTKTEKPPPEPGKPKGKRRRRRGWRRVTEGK
The test is classed as biochemical.

The next test concerns INS1. Nature of the test: beta cell apoptosis inhibitors, cytokine rescue, dose response, luminescence, retest (AID 449756).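 Note: cell death triggered by IL-1 beta plus TNF-alpha plus IFN-gamma mixture; protective hits raise ATP signal compared with cytokine alone wells.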 The test is classed as functional, cell-based. The note with it: Rattus norvegicus.
The next test has as its system Streptococcus. Briefly: Group A Streptococcus viability loss, dose response, counter-screen for streptokinase expression inhibitor project, luminescence, BacTiterGlo (AID 1915).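 Note: potency for reduction of bacterial viability or growth.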 The test is classed as functional, organism-based.
A further test addresses Hexokinase-1 (Homo sapiens, UniProt P19367). Briefly: hexokinase 1 activators, dose response, selectivity assay for HKDC1 activator project, biochemical (AID 504762). The test is classed as functional.
In test [5] the target is T5, Probable nicotinate-nucleotide adenylyltransferase (Staphylococcus aureus (strain N315), UniProt P65502). The test is classed as functional, Staphylococcus aureus subsp. aureus N315. The note with it: read-out: IC50_Mean.
T5 sequence (P65502 whole entry, the tested form may be a part): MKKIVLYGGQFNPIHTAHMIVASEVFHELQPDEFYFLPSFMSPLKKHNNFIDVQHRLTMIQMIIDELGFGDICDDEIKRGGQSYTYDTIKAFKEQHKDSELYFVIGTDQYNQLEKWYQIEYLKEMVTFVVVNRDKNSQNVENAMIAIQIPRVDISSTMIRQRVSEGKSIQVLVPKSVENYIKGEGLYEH
Test [6] in a line: inhibitors of clade B AD8 Env fusion, dose response, cell-based, cherry-pick (AID 652062).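 Note: luciferase signal from cell-cell fusion driven by HIV-1 clade B AD8 Env; potency is for inhibitors of fusion seen as a drop in luminescence.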 The test is classed as functional.
Test [7] relates to Streptococcus sp. 'group A'. Briefly: growth inhibition of control SK(-) GAS strain, dose response, counter-screen for streptokinase expression inhibitor project, luminescence, kanamycin, BacTiterGlo, confirmation (AID 1900). The test is classed as functional, organism-based.
Test [8] is described as follows: C. albicans growth with fluconazole, confirmation, fluorescence, retest (AID 2467). The test is classed as functional, cell-based.
For the next test, the target named is T6, Hexokinase HKDC1 (Homo sapiens, UniProt Q2TB90).
T6 sequence (Q2TB90 whole entry): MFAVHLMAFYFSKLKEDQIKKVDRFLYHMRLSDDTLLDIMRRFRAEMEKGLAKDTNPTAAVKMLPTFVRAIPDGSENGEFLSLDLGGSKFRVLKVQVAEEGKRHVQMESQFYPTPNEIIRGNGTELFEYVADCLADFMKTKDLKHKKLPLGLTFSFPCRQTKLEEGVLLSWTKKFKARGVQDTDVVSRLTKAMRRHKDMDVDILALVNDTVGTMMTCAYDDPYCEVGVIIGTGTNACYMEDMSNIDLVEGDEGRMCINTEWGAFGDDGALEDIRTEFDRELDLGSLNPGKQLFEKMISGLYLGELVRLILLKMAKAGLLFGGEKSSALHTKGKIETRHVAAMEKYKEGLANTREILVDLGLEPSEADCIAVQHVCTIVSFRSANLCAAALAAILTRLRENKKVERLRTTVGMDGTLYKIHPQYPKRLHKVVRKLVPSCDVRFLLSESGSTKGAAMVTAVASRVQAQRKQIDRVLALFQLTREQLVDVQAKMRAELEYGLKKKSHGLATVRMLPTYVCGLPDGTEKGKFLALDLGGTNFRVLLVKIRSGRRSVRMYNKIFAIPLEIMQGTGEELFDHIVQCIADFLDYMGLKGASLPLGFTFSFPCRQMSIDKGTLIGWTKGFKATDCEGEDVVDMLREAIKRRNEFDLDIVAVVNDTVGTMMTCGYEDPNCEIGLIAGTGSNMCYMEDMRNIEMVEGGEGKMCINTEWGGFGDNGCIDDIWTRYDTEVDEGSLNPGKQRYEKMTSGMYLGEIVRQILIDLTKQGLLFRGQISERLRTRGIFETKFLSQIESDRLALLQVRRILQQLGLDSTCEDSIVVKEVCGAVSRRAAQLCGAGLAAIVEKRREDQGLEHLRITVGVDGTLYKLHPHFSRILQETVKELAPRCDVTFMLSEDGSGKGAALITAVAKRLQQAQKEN
Nature of the test: HKDC1 hexokinase activators, dose response, biochemical, W721R variant (AID 504730). The test is classed as functional.

Test [9] is described as follows: ZM109 Env clade C HIV-1 fusion inhibitors, dose response, HeLa effector, CEM target cells, luciferase, cherry-pick (AID 652058). The test is classed as functional, cell-based.
The target in test [10] is T5, Probable nicotinate-nucleotide adenylyltransferase. The test is classed as functional, Staphylococcus aureus subsp. aureus N315.
A short description of test [11]: CEM21 cell cytotoxicity, dose response, cytotoxicity control, plate reader, dry powder (AID 687026). The test is classed as functional, cell-based.
Test [12] is described as follows: NIH-3T3 fibroblast cytotoxicity, dose response, cytotoxicity control, cell-based, fluorescence, Alamar Blue, secondary assay (AID 2327).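 Note: NIH-3T3 mouse fibroblasts cultured with fluconazole at 8 µg/mL.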 The test is classed as functional.
Test [13] can be described thus: inhibitors of HIV Env-driven cell fusion, dose response, cherry-pick (AID 652057). The test is classed as functional, cell-based.
Test [14] in a line: HIV Env cell-cell fusion inhibitors, dose response, HIV entry, plate reader, dry powder (AID 687023). The test is classed as functional, cell-based.
In the next test the target is Integrin alpha-4 (Homo sapiens, UniProt P13612). Nature of the test: VLA-4 integrin allosteric ligands, SAR follow-up, cell-based, LIBS antibody binding, flow cytometry (AID 488791). The test is classed as functional.
Sequence of Integrin alpha-4 (P13612 whole entry): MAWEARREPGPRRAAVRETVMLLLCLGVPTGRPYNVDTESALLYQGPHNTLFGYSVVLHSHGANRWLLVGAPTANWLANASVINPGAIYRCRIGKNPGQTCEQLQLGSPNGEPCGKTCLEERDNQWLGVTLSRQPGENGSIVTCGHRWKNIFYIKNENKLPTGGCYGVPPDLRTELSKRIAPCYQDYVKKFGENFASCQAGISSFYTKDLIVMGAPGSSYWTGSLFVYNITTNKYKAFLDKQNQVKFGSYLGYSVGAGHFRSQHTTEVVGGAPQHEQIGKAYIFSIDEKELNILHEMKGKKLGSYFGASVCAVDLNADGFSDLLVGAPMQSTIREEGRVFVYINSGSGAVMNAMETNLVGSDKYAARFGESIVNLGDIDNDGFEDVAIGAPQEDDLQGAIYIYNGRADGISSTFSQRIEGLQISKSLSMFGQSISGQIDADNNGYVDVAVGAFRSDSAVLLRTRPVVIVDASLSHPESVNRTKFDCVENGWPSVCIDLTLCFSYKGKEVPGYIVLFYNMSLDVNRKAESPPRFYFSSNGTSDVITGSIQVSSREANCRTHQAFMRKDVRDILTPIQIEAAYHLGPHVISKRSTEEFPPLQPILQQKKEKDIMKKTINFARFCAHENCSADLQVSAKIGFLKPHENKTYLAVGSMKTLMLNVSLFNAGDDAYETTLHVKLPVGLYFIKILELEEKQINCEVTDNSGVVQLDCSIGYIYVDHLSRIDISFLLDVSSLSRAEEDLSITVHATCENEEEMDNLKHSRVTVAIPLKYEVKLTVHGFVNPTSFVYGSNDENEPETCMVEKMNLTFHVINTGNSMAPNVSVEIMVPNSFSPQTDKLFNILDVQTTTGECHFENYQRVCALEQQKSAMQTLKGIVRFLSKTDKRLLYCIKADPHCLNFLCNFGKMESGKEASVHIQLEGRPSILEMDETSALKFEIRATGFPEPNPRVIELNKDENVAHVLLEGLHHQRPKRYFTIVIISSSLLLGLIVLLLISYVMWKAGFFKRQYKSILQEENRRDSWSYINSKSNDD

Molecules are shown by their SMILES. Active and inactive are the calls of the source.
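Throughout, for CC50: cells exposed to compound for 72 hours before luminescence readout.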
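Throughout, for IC50 Mean: confirmatory dose-response retesting of NadD inhibitor hits first found in an ultra-high-throughput screen.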

Sequence of Hexokinase-1 (P19367 whole entry): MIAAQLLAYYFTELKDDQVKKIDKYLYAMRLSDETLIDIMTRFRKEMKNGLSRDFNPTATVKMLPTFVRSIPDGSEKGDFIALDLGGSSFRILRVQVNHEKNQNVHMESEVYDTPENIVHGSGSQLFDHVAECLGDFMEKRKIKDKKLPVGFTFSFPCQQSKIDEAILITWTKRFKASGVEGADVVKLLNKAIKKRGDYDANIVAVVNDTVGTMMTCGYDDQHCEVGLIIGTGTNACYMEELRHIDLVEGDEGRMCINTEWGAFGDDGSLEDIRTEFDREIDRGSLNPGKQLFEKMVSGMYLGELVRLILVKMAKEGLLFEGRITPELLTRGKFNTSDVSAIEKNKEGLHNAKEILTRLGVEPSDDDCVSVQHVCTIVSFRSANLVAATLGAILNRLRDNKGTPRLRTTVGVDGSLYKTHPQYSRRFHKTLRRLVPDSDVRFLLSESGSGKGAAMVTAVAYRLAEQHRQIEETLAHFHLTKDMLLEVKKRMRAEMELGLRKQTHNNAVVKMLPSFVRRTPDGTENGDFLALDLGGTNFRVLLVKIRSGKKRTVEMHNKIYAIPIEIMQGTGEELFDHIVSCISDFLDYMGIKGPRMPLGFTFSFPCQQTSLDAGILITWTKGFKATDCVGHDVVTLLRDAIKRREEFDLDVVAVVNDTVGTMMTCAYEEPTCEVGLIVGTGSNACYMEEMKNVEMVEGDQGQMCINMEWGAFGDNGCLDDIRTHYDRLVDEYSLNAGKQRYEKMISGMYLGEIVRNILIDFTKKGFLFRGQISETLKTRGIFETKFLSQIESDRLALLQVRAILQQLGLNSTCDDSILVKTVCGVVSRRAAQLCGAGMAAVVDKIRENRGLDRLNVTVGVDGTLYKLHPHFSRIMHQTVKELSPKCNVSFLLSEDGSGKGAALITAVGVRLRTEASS

Turning to `CN(C1=C(NC(=O)c2ccccc2)C(=O)c2ccccc2C1=O)C1CCS(=O)(=O)C1` (stereo not given), the values for the EC50 (in test [1]; at Protein RecA) were 30.9 µM (active) and 0.108 µM (active), respectively. The CC50 in test [2] was 19.2 µM (active). Further, the results for the AC50 (in test [3]; in test [4]; in the test with INS1) were 1.7 µM (active), 4.69 µM (active) and 3 µM (active), respectively.
Turning to `COc1ccc(-c2cc(C(=O)NNC(=S)NC(=O)c3c(-c4ccccc4)noc3C)[nH]n2)cc1`, the EC50 with Streptococcus was 4.58 µM (active); on Hexokinase-1, > 80 µM (inactive); in test [7], 0.263 µM (active); in [8] it was > 38 µM (not active); at Hexokinase HKDC1, 3.62 µM (active); in test [12], 53.9 µM (active). The IC50 in test [5] is 26.1 µM (active); in [10], 6.51 µM (active). The AC50 in [6] was 4.51 µM (active); in test [9], 2.61 µM (active); in test [11], > 70 µM (inactive); in [13], 12 µM (active); in test [14] it was 2.1 µM (active).
On to `FC(F)Oc1ccc(C2=Nn3c(nnc3-c3ccccc3Cl)SC2)cc1OCC1CC1`, for which, at Integrin alpha-4, the EC50 is 3.89 µM (active).

The values are drawn from ChEMBL document CHEMBL1201862, “PubChem BioAssay data set” (2004).
